Measurements published in publication PMC9603901, “Therapeutic Potential of Antimicrobial Peptide PN5 against Multidrug-Resistant E. coli and Anti-Inflammatory Activity in a Septic Mouse Model” (Microbiology Spectrum, 2022).
Values after ≈ are worked out from the molar mass of the structure shown. Read-outs that look alike come from different tables or passages of the source. Where no end group is shown, it is not given here.

Columns and labels:
[1] = test system: E. coli ATCC 25922; experiment: microbe, parasite or virus in culture; format: cell-based, Escherichia coli; details: LB, 2 × 10^5 CFU mL^−1, 18 to 24 h, 37°C, three independent experiments
Experimental: (§1) Bacterial cells were cultured at 37°C in the appropriate culture media with shaking (180 rpm). Luria-Bertani broth (LB) (244620; BD Difco) was used for E. coli ATCC 25922, ASEC strains, and B. subtilis KCTC 2217. Nutrient broth (NB) (234000; BD Difco) was used for P. aeruginosa ATCC 27853, S. Typhimurium KCTC 1926, and A. baumannii KCTC 2508. Tryptic soy broth (TSB) (211825; BD Difco) was used for S. aureus ATCC 25923. Finally, brain heart infusion (BHI) (237500; BD Difco) was used for L. monocytogenes KCTC 3710. The antimicrobial activity of each peptide was determined using microdilution assays. To this end, 2-fold serial dilution series of each peptide (from 1 to 64 μM) were added to duplicate media with 10 mM sodium phosphate buffer (pH 7.4). Fifty microliters of the peptide and antibiotic solution was added to each well of a 96-well plate (32096, surface nontreatment; SPL Life Sciences). Then, 50 μL of 2 × 10^5 CFU mL^−1 of bacteria was added to each well, and the samples were incubated for 18 to 24 h without shaking at 37°C.

[2] = test system: MDR E. coli ASEC 10; experiment: microbe, parasite or virus in culture; format: cell-based, Escherichia coli; details: microdilution, LB, 18 to 24 h, 37°C, three independent experiments
Experimental: as §1

[3] = test system: MDR E. coli ASEC 11; experiment: microbe, parasite or virus in culture; format: cell-based, Escherichia coli; details: microdilution, LB, 18 to 24 h, 37°C, three independent experiments
Experimental: as §1

[4] = test system: MDR E. coli ASEC 12; experiment: microbe, parasite or virus in culture; format: cell-based, Escherichia coli; details: microdilution, LB, 18 to 24 h, 37°C, three independent experiments
Experimental: as §1

[5] = test system: MDR E. coli ASEC 13; experiment: microbe, parasite or virus in culture; format: cell-based, Escherichia coli; details: microdilution, LB, 18 to 24 h, 37°C, three independent experiments
Experimental: as §1

[6] = test system: MDR E. coli ASEC 14; experiment: microbe, parasite or virus in culture; format: cell-based, Escherichia coli; details: microdilution, LB, 18 to 24 h, 37°C, three independent experiments
Experimental: as §1

[7] = test system: MDR E. coli ASEC 15; experiment: microbe, parasite or virus in culture; format: cell-based, Escherichia coli; details: microdilution, LB, 18 to 24 h, 37°C, three independent experiments
Experimental: as §1

[8] = test system: MDR E. coli ASEC 16; experiment: microbe, parasite or virus in culture; format: cell-based, Escherichia coli; details: microdilution, LB, 18 to 24 h, 37°C, three independent experiments
Experimental: as §1

[9] = test system: MDR E. coli ASEC 17; experiment: microbe, parasite or virus in culture; format: cell-based, Escherichia coli; details: microdilution, LB, 18 to 24 h, 37°C, three independent experiments
Experimental: as §1

[10] = test system: MDR E. coli ASEC 18; experiment: microbe, parasite or virus in culture; format: cell-based, Escherichia coli; details: microdilution, LB, 18 to 24 h, 37°C, three independent experiments
Experimental: as §1

[11] = test system: MDR E. coli ASEC 19; experiment: microbe, parasite or virus in culture; format: cell-based, Escherichia coli; details: microdilution, LB, 18 to 24 h, 37°C, three independent experiments
Experimental: as §1

[12] = test system: MDR E. coli ASEC 1; experiment: microbe, parasite or virus in culture; format: cell-based, Escherichia coli; details: microdilution, LB, 18 to 24 h, 37°C, three independent experiments
Experimental: as §1

[13] = test system: MDR E. coli ASEC 2; experiment: microbe, parasite or virus in culture; format: cell-based, Escherichia coli; details: microdilution, LB, 18 to 24 h, 37°C, three independent experiments
Experimental: as §1

[14] = test system: MDR E. coli ASEC 3; experiment: microbe, parasite or virus in culture; format: cell-based, Escherichia coli; details: microdilution, LB, 18 to 24 h, 37°C, three independent experiments
Experimental: as §1

[15] = test system: MDR E. coli ASEC 4; experiment: microbe, parasite or virus in culture; format: cell-based, Escherichia coli; details: microdilution, LB, 18 to 24 h, 37°C, three independent experiments
Experimental: as §1

[16] = test system: MDR E. coli ASEC 5; experiment: microbe, parasite or virus in culture; format: cell-based, Escherichia coli; details: microdilution, LB, 18 to 24 h, 37°C, three independent experiments
Experimental: as §1

[17] = test system: MDR E. coli ASEC 6; experiment: microbe, parasite or virus in culture; format: cell-based, Escherichia coli; details: microdilution, LB, 18 to 24 h, 37°C, three independent experiments
Experimental: as §1

[18] = test system: MDR E. coli ASEC 7; experiment: microbe, parasite or virus in culture; format: cell-based, Escherichia coli; details: microdilution, LB, 18 to 24 h, 37°C, three independent experiments
Experimental: as §1

[19] = test system: MDR E. coli ASEC 8; experiment: microbe, parasite or virus in culture; format: cell-based, Escherichia coli; details: microdilution, LB, 18 to 24 h, 37°C, three independent experiments
Experimental: as §1

[20] = test system: MDR E. coli ASEC 9; experiment: microbe, parasite or virus in culture; format: cell-based, Escherichia coli; details: microdilution, LB, 18 to 24 h, 37°C, three independent experiments
Experimental: as §1

[21] = test system: MDR E. coli ASEC 7; set-up: method as in Asan hospital; key to susceptibility category: S: susceptible; R: resistant; I: intermediate; details: ref Asan hospital, cited from earlier work; for MIC: ASEC 7 (ESBL), resistance information of clinical isolate; for susceptibility category: ASEC 7
[22] = test system: MDR E. coli ASEC 12; set-up: method as in Asan hospital; key to susceptibility category: S: susceptible; R: resistant; I: intermediate; details: ref Asan hospital, cited from earlier work; for MIC: ASEC 12 (AmpC), resistance information of clinical isolate; for susceptibility category: ASEC 12
[23] = test system: MDR E. coli ASEC 17; set-up: method as in Asan hospital; key to susceptibility category: S: susceptible; R: resistant; I: intermediate; details: ref Asan hospital, cited from earlier work; for MIC: ASEC 17 (AmpC), resistance information of clinical isolate; for susceptibility category: ASEC 17
[24] = Escherichia coli, ATCC25922, microdilution, read-out: MIC
[25] = Escherichia coli, read-out: MIC

FKFLARTGKFL-NH2 [PN5]
MIC ([1]; microdilution): 16 (21.22) μM | MIC [2]: 8 (10.61) μM | MIC [3]: 2 (2.65) μM | MIC [4]: 2 (2.65) μM | MIC [5]: 8 (10.61) μM | MIC [6]: 2 (2.65) μM | MIC [7]: 16 (21.22) μM | MIC [8]: 4 (5.30) μM | MIC [9]: 8 (10.61) μM | MIC [10]: 16 (21.22) μM | MIC [11]: 8 (10.61) μM | MIC [12]: 8 (10.61) μM | MIC [13]: 2 (2.65) μM | MIC [14]: 8 (10.61) μM | MIC [15]: 4 (5.30) μM | MIC [16]: 8 (10.61) μM | MIC [17]: 4 (5.30) μM | MIC [18]: 8 (10.61) μM | MIC [19]: 4 (5.30) μM | MIC [20]: 16 (21.22) μM

CO/N=C(\C(=O)N[C@@H]1C(=O)N2C(C(=O)O)=C(COC(C)=O)CS[C@H]12)c1csc(N)n1 [Cefotaxime]
MIC [1, 24]: < 1 µM | MIC [2, 25]: > 32 µM | MIC [3, 25]: > 32 µM | MIC [4, 25]: > 32 µM | MIC [5, 25]: > 32 µM | MIC [6, 25]: > 32 µM | MIC [7, 25]: > 32 µM | MIC [8, 25]: > 32 µM | MIC [9, 25]: > 32 µM | MIC [10, 25]: > 32 µM | MIC [11, 25]: > 32 µM | MIC [12, 25]: > 32 µM | MIC [13, 25]: > 32 µM | MIC [14, 25]: > 32 µM | MIC [15, 25]: > 32 µM | MIC [16, 25]: > 32 µM | MIC [17, 25]: > 32 µM | MIC [18, 25]: > 32 µM | MIC [19, 25]: > 32 µM | MIC [20, 25]: > 32 µM | MIC [21]: > 32 µg/mL | susceptibility category [21]: R | MIC [22]: > 32 µg/mL | susceptibility category [22]: R | MIC [23]: > 32 µg/mL | susceptibility category [23]: R

C[C@@H](O)[C@H]1C(=O)N2C(C(=O)O)=C(S[C@@H]3CN[C@H](C(=O)N(C)C)C3)[C@H](C)[C@H]12 [Meropenem]
MIC [1, 24]: < 1 µM | MIC [2, 25]: < 1 µM | MIC [3, 25]: < 1 µM | MIC [4, 25]: 16 µM (≈ 6.14 µg/mL) | MIC [5, 25]: 2 µM (≈ 0.767 µg/mL) | MIC [6, 25]: 8 µM (≈ 3.07 µg/mL) | MIC [7, 25]: < 1 µM | MIC [8, 25]: < 1 µM | MIC [9, 25]: < 1 µM | MIC [10, 25]: < 1 µM | MIC [11, 25]: 8 µM (≈ 3.07 µg/mL) | MIC [12, 25]: 1 µM (≈ 0.383 µg/mL) | MIC [13, 25]: > 32 µM | MIC [14, 25]: > 32 µM | MIC [15, 25]: > 32 µM | MIC [16, 25]: 8 µM (≈ 3.07 µg/mL) | MIC [17, 25]: 16 µM (≈ 6.14 µg/mL) | MIC [18, 25]: < 1 µM | MIC [19, 25]: < 1 µM | MIC [20, 25]: < 1 µM | MIC [21]: <= 1 μg mL-1 | susceptibility category [21]: S | MIC [22]: > 8 µg/mL | susceptibility category [22]: R | MIC [23]: <= 1 μg mL-1 | susceptibility category [23]: S

CC(C)(O/N=C(\C(=O)N[C@@H]1C(=O)N2C(C(=O)[O-])=C(C[n+]3ccccc3)CS[C@H]12)c1csc(N)n1)C(=O)O [Ceftazidime]
MIC [1, 24]: < 1 µM | MIC [2, 25]: 32 µM (≈ 17.5 µg/mL) | MIC [3, 25]: > 32 µM | MIC [4, 25]: > 32 µM | MIC [5, 25]: > 32 µM | MIC [6, 25]: > 32 µM | MIC [7, 25]: > 32 µM | MIC [8, 25]: > 32 µM | MIC [9, 25]: > 32 µM | MIC [10, 25]: > 32 µM | MIC [11, 25]: > 32 µM | MIC [12, 25]: > 32 µM | MIC [13, 25]: > 32 µM | MIC [14, 25]: > 32 µM | MIC [15, 25]: > 32 µM | MIC [16, 25]: > 32 µM | MIC [17, 25]: > 32 µM | MIC [18, 25]: 16 µM (≈ 8.75 µg/mL) | MIC [19, 25]: > 32 µM | MIC [20, 25]: > 32 µM | MIC [21]: > 16 µg/mL | susceptibility category [21]: R | MIC [22]: 16 µg/mL (≈ 29.3 µM) | susceptibility category [22]: R | MIC [23]: > 16 µg/mL | susceptibility category [23]: R
